Data published in paper PMC10096391, “Discovery of N,4-Di(1H-pyrazol-4-yl)pyrimidin-2-amine-Derived CDK2 Inhibitors as Potential Anticancer Agents: Design, Synthesis, and Evaluation” (Molecules, 2023).

Legend:
CDK2/cyclin E (CDK2E) = CDK2/cyclin E (CDK2E) (Homo sapiens, UniProt P24941); assay: ADP-Glo kinase assay, CDK2/cyclin E; type: biochemical; conditions: for Ki: apparent Ki from IC50, ADP-Glo; for inhibition at 1 µM: read-out: % Enzymatic Inhibition at 1 µM CDK2E
Experimental: (§1) The luminescent ADP-Glo™ assay, which measures the amount of ADP formed in a kinase reaction as described previously, was used to determine the kinase inhibition profile of the compounds. […] Ki values were calculated from their corresponding IC50 values (the concentrations of inhibitors that inhibit the kinase activity by 50%) and the Michaelis–Menten constant (Km) of ATP for each kinase using the Cheng–Prusoff equation as previously stated. In brief, 1 μL of each concentration of the test compounds was added to the respective wells, and to it were added 1 μL of the kinases and their respective substrates, diluted to the desired concentration in kinase reaction buffer ([…] tris base pH 7.5, 20 mM MgCl2, 0.4 µM dithiothreitol, and 0.1 mg/mL bovine serum albumin), and the pH was adjusted by adding 1 μL of a two-fold diluted kinase reaction buffer. To initiate the kinase activity, 1 μL of ATP solution (the concentration varies depending on the type of kinase under investigation) was added to each well, and the mixture was incubated at room temperature (20 to 22 °C) for 30–60 min depending on the kinase being tested. The reaction was then halted, 5 μL of the ADP-Glo reagent was added to each well (removing any unreacted ATP), and it was incubated at room temperature for 40 min. Then, to each well, 10 μL of the kinase detection reagent containing luciferin was added, which was incubated once more at room temperature in the dark for 30 min and the luminescence was measured by an EnVision® multi-label plate reader with an integration time of 1.5 s per well. Positive controls (the wells without the inhibitor) and negative or blank controls (the wells without the inhibitor and the enzyme, but with 1 × kinase reaction buffer) were also determined in 2.5% DMSO.
(§2) The percentage of kinase inhibition was determined using the following equation: % Residual kinase activity=Luminescence in the presence of inhibitor−Luminescence of blank control/Luminescence in the absence of inhibitor−Luminescence of blank control×100%%kinase inhbition=100%−%Residual kinase activity
(§3) Km is defined as the concentration of ATP or the substrate required to produce 50% of the maximal reaction rate in the kinase reaction. Therefore, since we used the concentration of ATP and the substrate at their Km values, Ki simply equals IC50/2 assuming these inhibitors are ATP-competitive based on the Cheng–Prusoff equation: Ki = IC50/(1 + ([ATP]/Km(ATP))) where [ATP] is the ATP concentration used for the IC50 determination and Km(ATP) for each kinase was determined experimentally.

CDK1/cyclin B (CDK1B) = CDK1/cyclin B (CDK1B) (Homo sapiens, UniProt P06493); assay: ADP-Glo kinase assay, CDK1/cyclin B; type: biochemical; conditions: for Ki: apparent Ki from IC50, ADP-Glo; for inhibition at 1 µM: read-out: % Enzymatic Inhibition at 1 µM CDK1B
Chain of CDK1/cyclin B (CDK1B) (P06493 whole entry): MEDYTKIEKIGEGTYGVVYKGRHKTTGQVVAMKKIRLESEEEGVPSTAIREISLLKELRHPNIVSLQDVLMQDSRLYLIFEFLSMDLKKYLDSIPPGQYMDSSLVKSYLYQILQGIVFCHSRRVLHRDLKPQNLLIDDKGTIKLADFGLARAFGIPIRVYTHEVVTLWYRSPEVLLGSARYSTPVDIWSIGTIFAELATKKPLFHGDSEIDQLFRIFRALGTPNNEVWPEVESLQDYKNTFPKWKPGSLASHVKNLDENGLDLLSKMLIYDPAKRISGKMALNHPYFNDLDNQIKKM
Chain of CDK1/cyclin B (CDK1B) (P14635 whole entry partner): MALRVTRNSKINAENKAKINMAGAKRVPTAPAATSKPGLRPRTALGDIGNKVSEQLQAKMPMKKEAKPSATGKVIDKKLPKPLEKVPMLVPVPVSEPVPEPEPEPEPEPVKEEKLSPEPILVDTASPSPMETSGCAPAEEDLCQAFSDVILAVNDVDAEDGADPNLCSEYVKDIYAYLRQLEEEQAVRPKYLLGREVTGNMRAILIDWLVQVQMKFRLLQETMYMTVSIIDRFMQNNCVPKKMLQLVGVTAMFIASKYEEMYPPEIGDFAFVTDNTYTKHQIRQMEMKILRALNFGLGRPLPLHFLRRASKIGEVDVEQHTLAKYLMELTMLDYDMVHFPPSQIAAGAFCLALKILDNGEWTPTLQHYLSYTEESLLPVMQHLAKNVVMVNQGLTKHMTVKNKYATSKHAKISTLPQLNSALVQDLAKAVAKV
Experimental: as §1, §2, §3

CDK5/p25 (CDK5p25) = CDK5/p25 (CDK5p25) (Homo sapiens, UniProt Q00535); assay: ADP-Glo kinase assay, CDK5/p25; type: biochemical; conditions: for Ki: apparent Ki from IC50, ADP-Glo
Chain of CDK5/p25 (CDK5p25) (Q00535 whole entry): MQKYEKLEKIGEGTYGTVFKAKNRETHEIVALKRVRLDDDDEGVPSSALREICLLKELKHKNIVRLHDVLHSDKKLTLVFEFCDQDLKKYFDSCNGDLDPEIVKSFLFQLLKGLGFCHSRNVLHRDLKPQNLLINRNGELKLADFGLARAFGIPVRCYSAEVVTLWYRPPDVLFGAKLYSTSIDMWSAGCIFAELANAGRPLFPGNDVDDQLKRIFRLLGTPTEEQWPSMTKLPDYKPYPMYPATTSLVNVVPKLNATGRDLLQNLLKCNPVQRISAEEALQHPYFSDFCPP
Chain of CDK5/p25 (CDK5p25) (Q15078 99-307 partner limits assumed): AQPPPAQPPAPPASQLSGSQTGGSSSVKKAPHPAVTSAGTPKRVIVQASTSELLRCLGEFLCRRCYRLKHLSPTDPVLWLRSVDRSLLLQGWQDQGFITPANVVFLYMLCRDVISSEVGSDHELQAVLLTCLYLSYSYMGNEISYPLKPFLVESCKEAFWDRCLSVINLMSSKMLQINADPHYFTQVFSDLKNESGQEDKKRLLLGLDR
Experimental: as §1, with “Then, to each well, 10 μL of the kinase detection reagent containing luciferin was added, which was incubated once more at room temperature in the dark for 30 min and the luminescence was measured by an EnVision® multi-label plate reader with an integration time of 1.5 s per well.” left out
as §2, §3

CDK9/cyclin T1 (CDK9T1) = CDK9/cyclin T1 (CDK9T1) (Homo sapiens, UniProt P50750); assay: ADP-Glo kinase assay, CDK9/cyclin T1; type: biochemical; conditions: for Ki: apparent Ki from IC50, ADP-Glo; for inhibition at 1 µM: read-out: % Enzymatic Inhibition at 1 µM CDK9T1
Chain of CDK9/cyclin T1 (CDK9T1) (P50750 whole entry): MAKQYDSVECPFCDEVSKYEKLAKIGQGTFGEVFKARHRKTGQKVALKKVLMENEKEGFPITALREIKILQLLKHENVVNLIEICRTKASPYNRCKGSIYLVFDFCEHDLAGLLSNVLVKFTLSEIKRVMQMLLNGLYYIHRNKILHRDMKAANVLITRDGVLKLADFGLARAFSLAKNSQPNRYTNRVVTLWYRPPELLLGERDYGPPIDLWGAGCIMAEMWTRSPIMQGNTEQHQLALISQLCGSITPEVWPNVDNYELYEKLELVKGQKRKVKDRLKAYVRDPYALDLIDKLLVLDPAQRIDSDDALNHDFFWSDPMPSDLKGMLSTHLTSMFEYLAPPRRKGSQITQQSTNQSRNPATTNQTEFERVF
Chain of CDK9/cyclin T1 (CDK9T1) (O60563 whole entry partner): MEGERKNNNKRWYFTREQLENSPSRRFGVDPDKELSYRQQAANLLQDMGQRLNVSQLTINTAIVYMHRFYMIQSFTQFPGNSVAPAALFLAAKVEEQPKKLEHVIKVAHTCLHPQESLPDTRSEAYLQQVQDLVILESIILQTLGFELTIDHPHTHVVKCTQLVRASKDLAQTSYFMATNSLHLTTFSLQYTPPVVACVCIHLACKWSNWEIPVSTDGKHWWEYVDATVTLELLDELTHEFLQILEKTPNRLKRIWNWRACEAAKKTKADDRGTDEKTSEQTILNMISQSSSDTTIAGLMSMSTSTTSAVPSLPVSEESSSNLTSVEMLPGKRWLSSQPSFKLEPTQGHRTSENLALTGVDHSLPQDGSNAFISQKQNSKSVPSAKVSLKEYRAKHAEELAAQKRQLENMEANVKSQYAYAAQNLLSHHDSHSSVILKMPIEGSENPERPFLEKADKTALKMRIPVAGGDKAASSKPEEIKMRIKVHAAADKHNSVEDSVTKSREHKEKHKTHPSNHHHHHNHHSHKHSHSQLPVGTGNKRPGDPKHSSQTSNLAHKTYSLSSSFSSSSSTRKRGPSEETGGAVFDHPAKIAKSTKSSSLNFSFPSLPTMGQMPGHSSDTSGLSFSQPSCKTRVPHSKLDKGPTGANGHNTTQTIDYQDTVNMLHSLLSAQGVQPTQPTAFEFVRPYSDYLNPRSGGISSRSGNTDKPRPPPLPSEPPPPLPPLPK
Experimental: as §1, with “Then, to each well, 10 μL of the kinase detection reagent containing luciferin was added, which was incubated once more at room temperature in the dark for 30 min and the luminescence was measured by an EnVision® multi-label plate reader with an integration time of 1.5 s per well.” left out
as §2, §3

[1] = test system: A2780 ovarian cancer cells; assay: 72 h MTT antiproliferative assay, A2780; type: cell-based; conditions: for GI50 / inhibition at 1 µM: Homo sapiens, A2780, 72 h MTT; for inhibition at 1 µM: read-out: % Growth Inhibition (GI) at 1 µM A2780
Source text: Cancer cell lines derived from leukemia (MV4-11 and U937), breast (MCF7 (Rb-positive) and MDA-MB-231(Rb-negative)), and ovarian (A2780, OVCAR5, OAW28, OV90, Cov318, and Cov504) cancers, and glioblastoma (U87, T98G and U251) were acquired from the cell bank at Drug Discovery and Development, University of South Australia, and cultured according to the American Type Culture Collection (ATCC) recommendation in Roswell Park Memorial Institute (RPMI)-1640, Dulbecco’s Modified Eagle’s Medium (DMEM), or Minimum Essential Media (MEM), with 10% fetal bovine serum (Sigma-Aldrich, Castle Hill, NSW, Australia) within a humidified incubator at 37 °C in the presence of 5% CO2.
The MTT (Life Technologies, Mulgrave, VIC, Australia) and resazurin (Sigma-Aldrich) assays were used to determine the antiproliferative activities of the compounds initially at 1 µM against the cancer cell lines stated above.

Compound	Ki (CDK2/cyclin E (CDK2E))	Ki (CDK1/cyclin B (CDK1B))	Ki (CDK5/p25 (CDK5p25))	Ki (CDK9/cyclin T1 (CDK9T1))	GI50 [1]	inhibition at 1 µM (CDK2/cyclin E (CDK2E))	inhibition at 1 µM (CDK9/cyclin T1 (CDK9T1))	fold reduced CDK2 inhibition compared to 15 (CDK2/cyclin E (CDK2E); versus 15, Ki ratio)	inhibition at 1 µM (CDK1/cyclin B (CDK1B))	inhibition at 1 µM (CDK5/p25 (CDK5p25); read-out: % Enzymatic Inhibition at 1 µM CDK5p25)	fold lower antiproliferative activity against A2780 compared to 1 ([1]; versus 1)	inhibition at 1 µM [1]	fold less potent antiproliferative activity against A2780 than 15 ([1]; versus 15, GI50 ratio)
Cn1cc(-c2nc(Nc3cn[nH]c3)ncc2F)cn1 [Compound 14, 5-Fluoro-4-(1-methyl-1H-pyrazol-4-yl)-N-(1H-pyrazol-4-yl)pyrimidin-2-amine]	0.007 µM	0.018 µM	0.003 µM	0.016 µM	0.498 µM	–	–	–	–	–	about 28 fold	–	–
Cc1nn(C)cc1-c1nc(Nc2cnn(C)c2)ncc1F [Compound 20, 4-(1,3-Dimethyl-1H-pyrazol-4-yl)-5-fluoro-N-(1-methyl-1H-pyrazol-4-yl)pyrimidin-2-amine]	0.026 µM	0.164 µM	0.018 µM	0.343 µM	–	–	–	–	–	–	–	7%	–
Cc1nn(C)cc1-c1nc(Nc2cnn(C)c2)ncc1Cl [Compound 21, 5-Chloro-4-(1,3-dimethyl-1H-pyrazol-4-yl)-N-(1-methyl-1H-pyrazol-4-yl)pyrimidin-2-amine]	0.023 µM	0.225 µM	0.035 µM	0.062 µM	–	–	–	–	–	–	–	8%	–
Cn1cc(-c2nc(Nc3ccn[nH]3)ncc2Cl)cn1 [Compound 23, 5-Chloro-4-(1-methyl-1H-pyrazol-4-yl)-N-(1H-pyrazol-5-yl)pyrimidin-2-amine]	0.09 µM	–	0.04 µM	–	7.35 µM	–	40%	18 fold	9%	–	–	–	47 fold
Cn1cc(-c2nc(Nc3nccs3)ncc2Cl)cn1 [Compound 25, N-(5-Chloro-4-(1-methyl-1H-pyrazol-4-yl)pyrimidin-2-yl)thiazol-2-amine]	–	–	0.177 µM	–	–	46%	31%	–	31%	–	–	9%	–
Cn1cc(Nc2ncc(F)c(-c3cnn(CCN4CCOCC4)c3)n2)cn1 [Compound 31, 5-Fluoro-N-(1-methyl-1H-pyrazol-4-yl)-4-(1-(2-morpholinoethyl)-1H-pyrazol-4-yl)pyrimidin-2-amine]	–	–	–	–	–	48%	24%	–	26%	43%	–	0%	–
Cn1cc(Nc2ncc(Cl)c(-c3cnn(CCN4CCOCC4)c3)n2)cn1 [Compound 32, 5-Chloro-N-(1-methyl-1H-pyrazol-4-yl)-4-(1-(2-morpholinoethyl)-1H-pyrazol-4-yl)pyrimidin-2-amine]	0.252 µM	–	0.126 µM	–	–	–	21%	–	36%	–	–	3%	–

Continued, in another order:

Ki (CDK2/cyclin E (CDK2E))	Ki (CDK1/cyclin B (CDK1B))	Ki (CDK5/p25 (CDK5p25))	Ki (CDK9/cyclin T1 (CDK9T1))	GI50 [1]	inhibition at 1 µM (CDK2/cyclin E (CDK2E))	inhibition at 1 µM (CDK9/cyclin T1 (CDK9T1))	fold reduced CDK2 inhibition compared to 15 (CDK2/cyclin E (CDK2E); versus 15, Ki ratio)	inhibition at 1 µM (CDK1/cyclin B (CDK1B))	inhibition at 1 µM (CDK5/p25 (CDK5p25); read-out: % Enzymatic Inhibition at 1 µM CDK5p25)	Compound	fold lower antiproliferative activity against A2780 compared to 1 ([1]; versus 1)	inhibition at 1 µM [1]	fold less potent antiproliferative activity against A2780 than 15 ([1]; versus 15, GI50 ratio)
0.023 µM	0.092 µM	0.018 µM	0.098 µM	–	97%	–	–	–	–	Cn1cc(Nc2ncc(F)c(-c3cnn(C)c3)n2)cn1 [Compound 16, 5-Fluoro-N,4-bis(1-methyl-1H-pyrazol-4-yl)pyrimidin-2-amine]	–	9%	–
0.011 µM	0.034 µM	–	–	1.02 µM	–	–	–	–	–	Cn1cc(Nc2ncc(Cl)c(-c3cnn(C)c3)n2)cn1 [Compound 17, 5-Chloro-N,4-bis(1-methyl-1H-pyrazol-4-yl)pyrimidin-2-amine]	–	87%	–
0.085 µM	0.112 µM	0.193 µM	–	–	–	68%	–	–	–	Cn1cc(-c2nc(Nc3cnn(CC(N)=O)c3)ncc2F)cn1 [Compound 18, 2-(4-((5-Fluoro-4-(1-methyl-1H-pyrazol-4-yl)pyrimidin-2-yl)amino)-1H-pyrazol-1-yl)acetamide]	–	0%	–
0.025 µM	0.018 µM	0.052 µM	0.101 µM	–	–	–	–	–	–	Cn1cc(-c2nc(Nc3cnn(CC(N)=O)c3)ncc2Cl)cn1 [Compound 19, 2-(4-((5-Chloro-4-(1-methyl-1H-pyrazol-4-yl)pyrimidin-2-yl)amino)-1H-pyrazol-1-yl)acetamide]	–	44%	–
